Converted amounts (≈) assume the structure as drawn.
Key:
[1] = molecular target: T1, Dihydrofolate reductase (Rattus norvegicus, UniProt Q920D2)
T1 sequence (Q920D2 whole entry): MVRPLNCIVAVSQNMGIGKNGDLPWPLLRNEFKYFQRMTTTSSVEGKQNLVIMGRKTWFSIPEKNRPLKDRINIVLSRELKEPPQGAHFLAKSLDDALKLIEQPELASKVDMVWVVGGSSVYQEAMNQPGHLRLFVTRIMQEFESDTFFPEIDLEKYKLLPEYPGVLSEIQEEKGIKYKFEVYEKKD

[2] = Dissociation constant of compound at 20 degree C; assay type: physicochemical
[3] = tested on: Streptococcus agalactiae; assay: Comparative in vitro antibacterial activity of compound with trimethoprim against Streptococcus agalactiae CN1143; assay type: functional
[4] = tested on: Shigella flexneri; assay: Comparative in vitro antibacterial activity of compound with trimethoprim against Shigella flexneri CN6007; assay type: functional
[5] = tested on: Klebsiella aerogenes; assay: Comparative in vitro antibacterial activity of compound with trimethoprim against Enterobacter aerogenes 2200/86; assay type: functional
[6] = tested on: Escherichia coli; assay: Comparative in vitro antibacterial activity of compound with trimethoprim against Escherichia coli CN314; assay type: functional
[7] = tested on: Klebsiella pneumoniae; assay: Comparative in vitro antibacterial activity of compound with trimethoprim against Klebsiella pneumoniae CN3632; assay type: functional
[8] = tested on: Streptococcus pyogenes; assay: Comparative in vitro antibacterial activity of compound with trimethoprim against Streptococcus pyogenes CN10; assay type: functional
[9] = tested on: Enterococcus faecalis; assay: Comparative in vitro antibacterial activity of compound with trimethoprim against Streptococcus faecalis CN478; assay type: functional
[10] = tested on: Vibrio cholerae; assay: Comparative in vitro antibacterial activity of compound with trimethoprim against Vibrio cholerae ATCC 14035; assay type: functional
[11] = tested on: Salmonella typhimurium; assay: Comparative in vitro antibacterial activity of compound with trimethoprim against Salmonella Typhimurium S 8587; assay type: functional, Salmonella enterica subsp. enterica serovar Typhimurium; conditions: Salmonella enterica
[12] = tested on: Proteus vulgaris; assay: Comparative in vitro antibacterial activity of compound with trimethoprim against Proteus vulgaris CN329; assay type: functional
[13] = Comparative in vitro antibacterial activity of compound with trimethoprim against Salmonella typhi CN512; assay type: functional, salmonella typhosa
[14] = tested on: Staphylococcus aureus; assay: Comparative in vitro antibacterial activity of compound with trimethoprim against Staphylococcus aureus CN491; assay type: functional
[15] = tested on: Shigella flexneri; assay: Comparative in vitro antibacterial activity of compound with trimethoprim against Shigella flexneri CN6007 on different day; assay type: functional
[16] = tested on: Salmonella typhimurium; assay: Comparative in vitro antibacterial activity of compound with trimethoprim against Salmonella Typhimurium S 8587 on different day; assay type: functional, Salmonella enterica subsp. enterica serovar Typhimurium; conditions: Salmonella enterica
[17] = tested on: Streptococcus pyogenes; assay: Comparative in vitro antibacterial activity of compound with trimethoprim against Streptococcus pyogenes CN10 on different day; assay type: functional
[18] = tested on: Streptococcus agalactiae; assay: Comparative in vitro antibacterial activity of compound with trimethoprim against Streptococcus agalactiae CN1143 on different day; assay type: functional
[19] = Comparative in vitro antibacterial activity of compound with trimethoprim against Salmonella typhi CN512 on different day; assay type: functional, salmonella typhosa
[20] = tested on: Escherichia coli; assay: Comparative in vitro antibacterial activity of compound with trimethoprim against Escherichia coli CN314 on different day; assay type: functional
[21] = molecular target: T2, Dihydrofolate reductase (Escherichia coli, UniProt P0ABQ4)
T2 sequence (P0ABQ4 whole entry): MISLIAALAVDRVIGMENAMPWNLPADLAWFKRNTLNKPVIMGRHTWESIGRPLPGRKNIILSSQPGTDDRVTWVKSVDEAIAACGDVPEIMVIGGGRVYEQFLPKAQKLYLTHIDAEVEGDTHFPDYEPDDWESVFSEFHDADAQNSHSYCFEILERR
Description: Apparent binding affinity of compound in Escherichia coli DHFR

[22] = tested on: Proteus vulgaris; assay: Comparative in vitro antibacterial activity of compound with trimethoprim against Proteus vulgaris CN329 on different day; assay type: functional
[23] = tested on: Klebsiella aerogenes; assay: Comparative in vitro antibacterial activity of compound with trimethoprim against Enterobacter aerogenes 2200/86 on different day; assay type: functional
[24] = tested on: Klebsiella pneumoniae; assay: Comparative in vitro antibacterial activity of compound with trimethoprim against Klebsiella pneumoniae CN3632 on different day; assay type: functional
[25] = molecular target: T1, Dihydrofolate reductase; assay: Inhibitory activity against Dihydrofolate reductase in rat liver; assay type: functional, tissue-based; conditions: read-out: I50
[26] = molecular target: T3, Dihydrofolate reductase (Gallus gallus, UniProt P00378); assay: Inhibitory activity against Dihydrofolate reductase in chicken; conditions: read-out: I50
T3 sequence (P00378 whole entry): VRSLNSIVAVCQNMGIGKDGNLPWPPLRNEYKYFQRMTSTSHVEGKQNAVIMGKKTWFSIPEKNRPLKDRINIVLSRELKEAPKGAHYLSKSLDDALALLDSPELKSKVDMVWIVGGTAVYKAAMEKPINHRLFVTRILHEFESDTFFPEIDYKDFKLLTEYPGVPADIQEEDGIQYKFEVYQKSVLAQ

CC1=CC(C)(C)Nc2c(C)cc(Cc3cnc(N)nc3N)cc21
IC50 [1]: 500 µM

CC1=CC(C)(C)Nc2ccc(Cc3cnc(N)nc3N)cc21
IC50 [1]: 240 µM

CC1=CC(C)(C)Nc2ccccc21
pKa [2]: 3.69

CCOc1cc(Cc2cnc(N)nc2N)cc2c1NC(C)(C)C=C2C
IC50 [1]: 250 µM

CC1CC(C)(C)Nc2ccc(Cc3cnc(N)nc3N)cc21 (stereo not drawn)
IC50 [1]: 300 µM

CCN1CCC(C)c2ccccc21 (stereo not drawn)
pKa [2]: 4.18

COc1cc(Cc2cnc(N)nc2N)cc2c1N(CCOC(C)=O)C(C)(C)C=C2C
IC50 [1]: 164 µM

CCc1cc(Cc2cnc(N)nc2N)cc2c1NC(C)(C)C=C2C
IC50 [1]: 174 µM

COc1cccc2c1NC(C)(C)C=C2C
pKa [2]: 3.36

COc1cc(Cc2cnc(N)nc2N)cc2c1NC(C)(CF)C=C2CF (stereo not drawn)
MIC [3]: 0.3 mg/L (≈ 0.83 µM) | MIC [4]: 10 mg/L (≈ 27.7 µM) | MIC [5]: 30 mg/L (≈ 83 µM) | MIC [6]: 10 mg/L (≈ 27.7 µM) | MIC [7]: 10 mg/L (≈ 27.7 µM) | MIC [8]: 0.1 mg/L (≈ 0.277 µM) | IC50 [1]: 230 µM | MIC [9]: 0.3 mg/L (≈ 0.83 µM) | MIC [10]: 3 mg/L (≈ 8.3 µM) | MIC [11]: 3 mg/L (≈ 8.3 µM) | MIC [12]: 10 mg/L (≈ 27.7 µM) | MIC [13]: 10 mg/L (≈ 27.7 µM) | MIC [14]: 0.3 mg/L (≈ 0.83 µM)

COc1cc(Cc2cnc(N)nc2N)cc2c1NCCC2C (stereo not drawn)
IC50 [1]: 33 µM

CC1=CC(C)(C)Nc2c1cc(Cc1cnc(N)nc1N)c1cccnc21
MIC [3]: 0.3 mg/L (≈ 0.866 µM) | MIC [4]: 100 mg/L (≈ 289 µM) | MIC [5]: 10 mg/L (≈ 28.9 µM) | MIC [6]: 30 mg/L (≈ 86.6 µM) | MIC [7]: > 300 mg/L | MIC [8]: 0.03 mg/L (≈ 0.0866 µM) | MIC [9]: 0.3 mg/L (≈ 0.866 µM) | MIC [10]: 1 mg/L (≈ 2.89 µM) | MIC [11]: 100 mg/L (≈ 289 µM) | MIC [12]: > 100 mg/L | MIC [13]: 30 mg/L (≈ 86.6 µM) | MIC [14]: 0.1 mg/L (≈ 0.289 µM)

COc1cc(Cc2cnc(N)nc2N)cc2c1N(C)C(C)(C)C=C2C
IC50 [1]: 340 µM

COc1cc(Cc2cnc(N)nc2N)cc2c(C)ccnc12
IC50 [1]: 20 µM

CC1=CC(C)(C)Nc2c(Cl)cc(Cc3cnc(N)nc3N)cc21
MIC [3]: 100 mg/L (≈ 303 µM) | MIC [4]: 100 mg/L (≈ 303 µM) | MIC [5]: 300 mg/L (≈ 910 µM) | MIC [6]: 100 mg/L (≈ 303 µM) | MIC [7]: 30 mg/L (≈ 91 µM) | MIC [8]: 10 mg/L (≈ 30.3 µM) | IC50 [1]: 76 µM | MIC [9]: 300 mg/L (≈ 910 µM) | MIC [10]: 100 mg/L (≈ 303 µM) | MIC [11]: 30 mg/L (≈ 91 µM) | MIC [12]: 30 mg/L (≈ 91 µM) | MIC [13]: 30 mg/L (≈ 91 µM) | MIC [14]: 30 mg/L (≈ 91 µM)

COc1cccc2c1N(C)C(C)(C)C=C2C
pKa [2]: 6.82

COc1cc(Cc2cnc(N)nc2N)cc2c1NC(C)(C)CC2C (stereo not drawn)
MIC [3]: 1 mg/L (≈ 3.05 µM) | MIC [4]: 30 mg/L (≈ 91.6 µM) | MIC [5]: 10 mg/L (≈ 30.5 µM) | MIC [6]: 30 mg/L (≈ 91.6 µM) | MIC [8]: 1 mg/L (≈ 3.05 µM) | IC50 [1]: 430 µM | MIC [9]: 1 mg/L (≈ 3.05 µM) | MIC [10]: 3 mg/L (≈ 9.16 µM) | MIC [11]: 30 mg/L (≈ 91.6 µM) | MIC [12]: > 100 mg/L | MIC [13]: 100 mg/L (≈ 305 µM) | MIC [14]: 3 mg/L (≈ 9.16 µM)

COc1cc(Cc2cnc(N)nc2N)cc2c1NC(C)(CF)C(F)=C2C (stereo not drawn)
MIC [15]: 0.3 mg/L (≈ 0.83 µM) | MIC [3]: 0.1 mg/L (≈ 0.277 µM) | MIC [4]: 3 mg/L (≈ 8.3 µM) | MIC [5]: 1 mg/L (≈ 2.77 µM) | MIC [16]: 3 mg/L (≈ 8.3 µM) | MIC [6]: 1 mg/L (≈ 2.77 µM) | MIC [7]: 10 mg/L (≈ 27.7 µM) | MIC [17]: 0.0001 mg/L (≈ 0.000277 µM) | MIC [8]: 0.03 mg/L (≈ 0.083 µM) | IC50 [1]: 233 µM | MIC [18]: 0.03 mg/L (≈ 0.083 µM) | MIC [19]: 30 mg/L (≈ 83 µM) | MIC [9]: 0.0001 mg/L (≈ 0.000277 µM) | MIC [10]: 3 mg/L (≈ 8.3 µM) | MIC [20]: 10 mg/L (≈ 27.7 µM) | Ki [21]: 0.0001 µM | MIC [22]: 3 mg/L (≈ 8.3 µM) | MIC [11]: 3 mg/L (≈ 8.3 µM) | MIC [23]: 10 mg/L (≈ 27.7 µM) | MIC [12]: 3 mg/L (≈ 8.3 µM) | MIC [24]: 1 mg/L (≈ 2.77 µM) | MIC [13]: 1 mg/L (≈ 2.77 µM) | MIC [14]: 0.001 mg/L (≈ 0.00277 µM)

COc1cc(Cc2cnc(N)nc2N)cc2c1N(C)CCC2C (stereo not drawn)
IC50 [25]: 250 µM | pKa [2]: 6.51

CN1CCCc2ccccc21
pKa [2]: 4.1

CC1=CC(C)(C)Nc2c1cc(Cc1cnc(N)nc1N)cc2[S+](C)[O-] (stereo not drawn)
IC50 [1]: 56 µM

CSc1cc(Cc2cnc(N)nc2N)cc2c1NC(C)(C)C=C2C
MIC [3]: 0.3 mg/L (≈ 0.879 µM) | MIC [4]: 30 mg/L (≈ 87.9 µM) | MIC [5]: 10 mg/L (≈ 29.3 µM) | MIC [6]: 10 mg/L (≈ 29.3 µM) | MIC [7]: 100 mg/L (≈ 293 µM) | MIC [8]: 0.1 mg/L (≈ 0.293 µM) | IC50 [1]: 118 µM | MIC [9]: ≤ 0.03 mg/L | MIC [10]: 1 mg/L (≈ 2.93 µM) | Ki [21]: 0.00043 µM | MIC [11]: 30 mg/L (≈ 87.9 µM) | MIC [12]: > 100 mg/L | MIC [13]: 30 mg/L (≈ 87.9 µM) | MIC [14]: 0.3 mg/L (≈ 0.879 µM)

COc1cc(Cc2cnc(N)nc2N)cc2c1NC(C)(C)C=C2C
MIC [3]: 0.3 mg/L (≈ 0.922 µM) | MIC [4]: 3 mg/L (≈ 9.22 µM) | MIC [5]: 3 mg/L (≈ 9.22 µM) | MIC [6]: 3 mg/L (≈ 9.22 µM) | MIC [7]: 10 mg/L (≈ 30.7 µM) | MIC [8]: 0.1 mg/L (≈ 0.307 µM) | IC50 [1]: 300 µM | MIC [9]: 0.1 mg/L (≈ 0.307 µM) | MIC [10]: 3 mg/L (≈ 9.22 µM) | MIC [11]: 10 mg/L (≈ 30.7 µM) | MIC [12]: 3 mg/L (≈ 9.22 µM) | IC50 [26]: 1.3 µM | MIC [13]: 10 mg/L (≈ 30.7 µM) | MIC [14]: 0.3 mg/L (≈ 0.922 µM)
